Measurements published in patent US10669240B2, “5-substituted indazole-3-carboxamides and preparation and use thereof” (Samumed, LLC, priority 2014, dated 2020).

Legend:
Assay type in all cases: cell-based
[1] = system: primary human fibroblasts derived from IPF patients (LL29 cells); assay: Inhibition of the fibrotic process: αSMA staining in TGF-β1 treated LL29 fibroblasts; conditions: Fibroblast, 72 h, TGF-β1 10 ng/ml, 3 days, read-out: Inhibition of fibrosis IC50
Description: The above synthesized compounds were screened using primary human fibroblasts (derived from IPF patients) treated with TGF-β1 to determine their ability to inhibit the fibrotic process.
Each compound was dissolved in DMSO as a 10 mM stock and used to prepare compound source plates. […] LL29 cells were plated at 1,000 cells/well in 50 μl/well serum free F12 medium. […] Wells untreated with TGF-β1 were used as control for normalization and calculating IC50 values. Cells were incubated at 37° C. and 5% CO2 for 3 days. Cells were fixed using 4% formaldehyde (Electron Microscopy Sciences), washed 3 times with PBS followed by blocking and permeabilization using 3% Bovine Serum Albumin (BSA; Sigma) and 0.3% Triton X-100 (Sigma) in PBS. […] The IC50 values are reported.

[2] = system: Wnt activity (Wnt-responsive SP5 promoter luciferase reporter in SW480 cells); assay: Wnt activity reporter assay: SW480 cells with SP5 promoter-driven firefly luciferase; conditions: Homo sapiens, 24 h after compound addition, read-out: Wnt inhibition
Summary of the method: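 SW480 cells (APC-mutant colon line) stably carrying a lentiviral SP5-promoter (eight TCF/LEF sites) firefly luciferase reporter were plated at ~10,000 cells/well. Luminescence was normalized to DMSO-only cells and used for IC50.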

[3] = target: DYRK1A (Homo sapiens (Human), UniProt Q13627); assay: DYRK1A activity Tau assay: pSer396 Tau in SH-SY5Y cells by ELISA / western blot; conditions: overnight (16-18 h) exposure
From the text: In another example, in vitro assays for DYRK1A biological activity may be used, e.g. regulation of microtubule-associated protein tau (MAPT/Tau) phosphorylation in neuronal cell line such as the human SH-SY5Y neuroblastoma cell line. Assays for DYRK1a-regulated level of phosphorylation can include monitoring levels of basal pSer396 Tau, which can be measured, for example, by serial dilutions of a candidate inhibitor composition using a ten micromolar top concentration and detected by ELISA or Western Blotting. An exemplary assay for DYRK-1a-regulated phosphorylation uses the SH-SY5Y cells cultured in a 96 well plate format for a period of time sufficient to stabilize microtubules and Tau phosphorylation, usually at least 2 days, then treated with a 1/3 serial dilution of compounds overnight and lysed. The cell lysate is resolved by SDS PAGE, then transferred to nitrocellulose and probed with an antibody specific for pSer396 Tau.
In a further example, the activity of a candidate compound can be measured by ELISA by adding the lysate mentioned above onto total Tau-coated plates and detected with a specific pSer396 antibody.

[4] = system: primary human mesenchymal stem cells (hMSCs); assay: Chondrogenesis assay in primary human mesenchymal stem cells, nodule count vs TGF-β3 positive control; conditions: 6 days; for Conc (nM) of Max. activity: 6-point dose-response 2700 nM to 10 nM, dose at which maximum chondrogenesis activity was reached; for Conc (nM) of 100% TGF-β3 activity: concentration required to induce chondrogenesis equivalent to TGF-β3 (10 ng/mL); for Max. Activity as % TGF-β3 activity: relative to TGF-β3 (10 ng/mL) positive control
From the text: The above synthesized compounds were screened using primary human mesenchymal stem cells (hMSCs) to determine their ability to induce chondrogenesis (process by which cartilage is developed).
Human Mesenchymal Stem Cell Culture:
Primary human mesenchymal stem cells (hMSCs) were purchased from Lonza (Walkersville, Md.) and expanded in Mesenchymal Stem Cell Growth Media (Lonza). Cells between passage 3 and 6 were used for the experiments.
Number of nodules in each well was normalized to the average of 3 DMSO treated wells on the same plate using Excel (Microsoft Inc.). The normalized averages (fold change over DMSO) of 3 replicate wells for each compound concentration were calculated. Due to solubility limitations of some of the compounds, curve fitting was incomplete leading to inaccurate EC50 determinations.
Using TGF-β3 as a positive control, the concentration of test compounds required to induce equivalent levels of chondrogenesis is reported. In addition, the maximum activity of each compound and the respective dose that each compound reached maximum chondrogenesis activity is reported.

Structure (SMILES)	IC50 [1] [nM]	IC50 [2] [nM]	EC50 [3] [nM]	Conc (nM) of Max. activity [4] [nM]	Conc (nM) of 100% TGF-β3 activity [4] [nM]	Max. Activity as % TGF-β3 activity [4] [%]
CN1CCN(c2ccc(NC(=O)c3n[nH]c4ccc(-c5cncc(NC(=O)c6cc(F)ccc6F)c5)cc34)cn2)CC1 [Compound 48, 5-(5-(2,5-Difluorobenzamido)pyridin-3-yl)-N-(6-(4-methylpiperazin-1-yl)pyridin-3-yl)-1H-indazole-3-carboxamide]	67	31	2	2700	2700	237
COc1ccc(NC(=O)c2n[nH]c3ccc(-c4cncc(CN5CCCC5)c4)cc23)cn1 [Compound 53, N-(6-Methoxypyridin-3-yl)-5-(5-(pyrrolidin-1-ylmethyl)pyridin-3-yl)-1H-indazole-3-carboxamide]	231	50	2	2700		86
COc1ccc(NC(=O)c2n[nH]c3ccc(-c4cncc(CN5CCC(F)(F)C5)c4)cc23)cn1 [Compound 54, 5-(5-((3,3-Difluoropyrrolidin-1-yl)methyl)pyridin-3-yl)-N-(6-methoxypyridin-3-yl)-1H-indazole-3-carboxamide]	51	5	2	300		51
CN1CCN(c2ccc(NC(=O)c3n[nH]c4ccc(-c5cncc(CN6CCC(F)(F)C6)c5)cc34)cn2)CC1 [Compound 55, 5-(5-((3,3-Difluoropyrrolidin-1-yl)methyl)pyridin-3-yl)-N-(6-(4-methylpiperazin-1-yl)pyridin-3-yl)-1H-indazole-3-carboxamide]	140	4	1	100		69
Cc1cncc(NC(=O)c2n[nH]c3ccc(-c4cncc(CN5CCCCC5)c4)cc23)c1 [Compound 64, N-(5-Methylpyridin-3-yl)-5-(5-(piperidin-1-ylmethyl)pyridin-3-yl)-1H-indazole-3-carboxamide]	265	59	2	2700		83
Cc1ccc(NC(=O)c2n[nH]c3ccc(-c4cncc(CN5CCCCC5)c4)cc23)cn1 [Compound 65, N-(6-Methylpyridin-3-yl)-5-(5-(piperidin-1-ylmethyl)pyridin-3-yl)-1H-indazole-3-carboxamide]	172	57	1	900	900	117
CC(C)Oc1ccc(NC(=O)c2n[nH]c3ccc(-c4cncc(CN5CCCCC5)c4)cc23)cn1 [Compound 67, N-(6-Isopropoxypyridin-3-yl)-5-(5-(piperidin-1-ylmethyl)pyridin-3-yl)-1H-indazole-3-carboxamide]	251	41	3	2700		82
CC(C)CC(=O)Nc1ccncc1NC(=O)c1n[nH]c2ccc(-c3cncc(CN4CCCCC4)c3)cc12 [Compound 73, N-(4-(3-Methylbutanamido)pyridin-3-yl)-5-(5-(piperidin-1-ylmethyl)pyridin-3-yl)-1H-indazole-3-carboxamide]	1870	25	57	900		65
O=C(Nc1cnccc1NC(=O)C1CC1)c1n[nH]c2ccc(-c3cncc(CN4CCCCC4)c3)cc12 [Compound 74, N-(4-(Cyclopropanecarboxamido)pyridin-3-yl)-5-(5-(piperidin-1-ylmethyl)pyridin-3-yl)-1H-indazole-3-carboxamide]	2740	120		10		31
O=C(Nc1ccnc(C(F)(F)F)c1)c1n[nH]c2ccc(-c3cncc(CN4CCCCC4)c3)cc12 [Compound 80, 5-(5-(Piperidin-1-ylmethyl)pyridin-3-yl)-N-(2-(trifluoromethyl)pyridin-4-yl)-1H-indazole-3-carboxamide]	303	36	36	900		20
CC1CCN(Cc2cncc(-c3ccc4[nH]nc(C(=O)Nc5cccnc5)c4c3)c2)CC1 [Compound 82, 5-(5-((4-Methylpiperidin-1-yl)methyl)pyridin-3-yl)-N-(pyridin-3-yl)-1H-indazole-3-carboxamide]	129	7	2	900	900	109
O=C(Nc1cccnc1)c1n[nH]c2ccc(-c3cncc(CN4CC5CC(C4)O5)c3)cc12 [Compound 84, 5-(5-((6-Oxa-3-azabicyclo[3.1.1]heptan-3-yl)methyl)pyridin-3-yl)-N-(pyridin-3-yl)-1H-indazole-3-carboxamide]	132	67		900	900	121
CC(C)Oc1ccc(NC(=O)c2n[nH]c3ccc(-c4cncc(CN5CC6CC(C5)O6)c4)cc23)cn1 [Compound 85, 5-(5-((6-Oxa-3-azabicyclo[3.1.1]heptan-3-yl)methyl)pyridin-3-yl)-N-(6-isopropoxypyridin-3-yl)-1H-indazole-3-carboxamide]	180	61	4	900		49
CC(C)NC(=O)c1n[nH]c2ccc(-c3cncc(CN4CCC(F)(F)CC4)c3)cc12 [Compound 132, 5-(5-((4,4-Difluoropiperidin-1-yl)methyl)pyridin-3-yl)-N-isopropyl-1H-indazole-3-carboxamide]	237	47	6	2700	2700	
C[C@@H]1CN(c2ccc(NC(=O)c3n[nH]c4ccc(-c5cncc(CN6CCCCC6)c5)cc34)cn2)C[C@H](C)O1 [Compound 1141, N-(6-((2S,6R)-2,6-dimethylmorpholino)pyridin-3-yl)-5-(5-(piperidin-1-ylmethyl)pyridin-3-yl)-1H-indazole-3-carboxamide]	468	3	1	2700	2700	129
O=C(NC1CC1)c1n[nH]c2ccc(-c3cncnc3)cc12 [Compound 1269, N-Cyclopropyl-5-(pyrimidin-5-yl)-1H-indazole-3-carboxamide]			76	2700		53
CC(C)N1CCC(NC(=O)c2n[nH]c3ccc(-c4cncc(Cl)c4)cc23)CC1 [Compound 1305, 5-(5-Chloropyridin-3-yl)-N-(1-isopropylpiperidin-4-yl)-1H-indazole-3-carboxamide]			124	2700	2700	121
O=C(Nc1ccccn1)c1n[nH]c2cc(F)c(-c3cncc(CN4CCCCC4)c3)cc12 [Compound 1343, 6-Fluoro-5-(5-(piperidin-1-ylmethyl)pyridin-3-yl)-N-(pyridin-2-yl)-1H-indazole-3-carboxamide]			2	2700		67
